Assay type in all cases: cell-based, human
In assay [1] the test system is H1299 cells stably transfected with EMX2. Put plainly: MTS assay of chemo-synergic effect between EMX2 and cisplatin. To be noted: compared with cisplatin or EMX2 alone, cisplatin 0.3 ng/ml (FIG. 23D). On the procedure:
The chemo-synergic effect between EMX2 and cisplatin was examined in order to determine whether EMX2 could sensitize NSCLC cells to cisplatin treatment. The H1299 lung cancer cell line was stably transfected with EMX2 The chemo-synergic effect between EMX2 and cisplatin was measured in this cell line by MTS assay (Promega, Madison, Wis.).
Stable EV- or EMX2 transfected cells were plated in 96-well plates at a density of 500 cells per well in 100 μl of culture medium with G418. Medium was changed every three days. Cell viability was evaluated by CELLTITER 96 Aqueous one solution cell proliferation assay (MTS assay) (Promega, Madison, Wis.) on days 1-7. Briefly, 20 μl of reagent was added to each well and incubated in a culture hood for 2 hr. Absorbance at 490 nm was measured with a kinetic microplate reader (Vmax; Molecular Devices, Sunnyvale, Calif.) and was used as a measure of cell number. Experiments were repeated three times.
Proliferation Assays. Stably transfected cells were plated in 96-well plates at a density of 500-1000 cells/well in 100 μl of G418 culture medium. Medium was changed every day. Cell viability was evaluated in triplicate by CellTiter 96 AQueous (Promega) per manufacturer's protocol. […] Colonies were then fixed by 10% formalin, stained with 0.5% crystal violet and counted.

Another assay concerns OE33 cells. In words: DAC de-methylation treatment, EMX2 expression by semi-quantitative RT-PCR in OE33. The settings on record: OE33 cells that did not originally express EMX2.
In a further assay the test system is TE-7 cells. In words: DAC treatment negative control, EMX2 expression by semi-quantitative RT-PCR in TE-7. To be noted: TE-7 cells that endogenously expressed EMX2.
For assay [2], the system named is EMX2 expression in NSCLC cell lines. In words: DAC de-methylation treatment of NSCLC cell lines, EMX2 expression by semi-quantitative RT-PCR. To be noted: 5 μM DAC, NSCLC / lung cancer cell lines with initially silenced EMX2. On the procedure:
Reverse transcription-polymerase chain reaction (RT-PCR) was performed in a GeneAmp PCR system 9700 (Applied Biosystems, Foster City, Calif.), using an RT-PCR kit (SuperScript II one-step RT-PCR with Platinum Taq kit; Invitrogen, Carlsbad, Calif.) according to the manufacturer's protocol. Primers for RT-PCR were obtained from Operon Biotechnologies (Huntsville, Ala.). Total RNA of normal human lung was obtained from the Biochain Institute (Hayward, Calif.). Total RNA (500 ng) was used for each reaction. Primer sequences were as follows: human EMX2 DNA, Forward primer; 5′-[…]-3′ (SEQ ID NO: 3), Reverse primer; 5′-[…]-3′ (SEQ ID NO:4).
Human NSCLC cell lines H1299, H322 and A427 were purchased from American Type Culture Collection (ATCC), (Manassas, Va.). These cell lines were cultured in RPMI 1640 supplemented with 10% fetal bovine serum, penicillin (100 IU/mL) and streptomycin (100 μg/mL). All cells were cultured at 37° C. in a humidified incubator with 5% CO2. Total RNA from cell lines was isolated using RNeasy Mini kit (Qiagen). Treatment with 5 μM 5-aza-2′-deoxycytidine (DAC; Sigma) was done according to Clement G. et al., “Epigenetic alteration of the Wnt inhibitory factor-1 promoter occurs early in the carcinogenesis of Barrett's esophagus.” Cancer Sci 99:46-53 (2008).
Cell Culture and 5-Aza-2′-deoxycytidine (DAC) Treatment. […]

SMILES strings stand for the structures. Entries after “also recorded” stand apart in the source; their conditions may differ.

For `N.N.[Cl][Pt][Cl]` [cisplatin], the “Suppression of cell proliferation by cisplatin combined with EMX2” value in assay [1] is “further enhanced; also recorded: more efficiently suppressed; also recorded: significantly enhanced”.
For the compound `Nc1ncn([C@H]2C[C@H](O)[C@@H](CO)O2)c(=O)n1` [DAC, 5-aza-2′-deoxycytidine], the “EMX2 expression after DAC treatment” value is listed as “restoration of EMX2 expression” with OE33 cells, “restored” with OE33 cells (listed as 5-aza-DAC) and “restored EMX2 expression levels” in assay [2]. In addition, the “EMX2 expression levels after DAC treatment” value in the assay on TE-7 cells is listed as “not affected”.

Values taken from patent US9279157B2, “EMX2 in cancer diagnosis and prognosis” (The Regents of the University of California, priority 2009, dated 2016).
